In patent publication US11401303B2, “Synthetic peptide BRAP and application in preparation of anti-inflammatory drug for COVID-19 thereof” (TAIAN CITY QIHANG BIOTECHNOLOGY CO., priority 2020, dated 2022):

Tests used:
[1] = tested on: OVA-induced allergic rhinitis; test: Rat allergic nasal inflammation (OVA-induced allergic rhinitis), intranasal administration; assay type: in vivo, SD rat; settings: all dose groups of the peptide; bilateral nasal cavities 50 μL/side, 4 weeks, continued OVA provocation
Procedure: SD rat modeling: two stages of intraperitoneal injection for sensitization and intranasal dripping for stimulation. Ovalbumin was injected intraperitoneally, and 1 mg ovalbumin (V-class Sigma, USA) was dissolved in 1 ml normal saline, and 30 mg of aluminum hydroxide was added as an immunologic adjuvant. Each rat was intraperitoneally injected 1 ml ovalbumin suspension prepared above with 1 ml/time every other day and for 7 times in total; and stimulated intranasally with ovalbumin on the 15th day; 20 mg ovalbumin (V-class Sigma, USA) were dissolved in 1 ml normal saline to be prepared into a 2% solution; and the 2% ovalbumin solution was used for stimulation by nasal dripping; and 50 ul nasal drips were administered in each of the nasal cavities of each rat for 7 consecutive days.
Blank control group: 30 mg of aluminum hydroxide+1 ml of normal saline were mixed evenly, and then injected intraperitoneally; and the method was the same as the above.
Normal saline was dripped into nasal cavities on the 15th day.
After the final nasal dripping was performed, each rat was observed and evaluated according to a scoring table: Sneezing, nose scratching, gasping and nasal secretions
1. Administration way: a drug was administered with a micro-sampling gun, bilateral nasal cavities of a rat were administered with 50 μL/side, after being administered for 20 min, a 2% ovalbumin solution was administered to bilateral nasal cavities of the rat; 50 μL/side nasal dripping was administered for provocation; the above treatment was performed for 4 consecutive weeks to observe the pharmacodynamic effect.
High-dose synthetic peptide brap: a synthetic peptide brap freeze-dried powder (5 mg/bottle) was taken, and 1.63 ml sterile saline solution was added for dissolving;
medium-dose synthetic peptide brap: a synthetic peptide brap freeze-dried powder (5 mg/bottle) was taken, and 4.89 ml sterile saline solution was added for dissolving;
low-dose synthetic peptide brap: a synthetic peptide brap freeze-dried powder (5 mg/bottle) was taken, and 14.67 ml sterile saline solution was added for dissolving;

[2] = tested on: LPS-induced acute lung injury; test: LPS-induced acute lung injury in mice, HE pathological examination of lung tissues; assay type: in vivo, Balb/C mice; settings: 16 mg/kgBW via tail vein once/day; LPS 5 mg/kgBW i.p.
Procedure: 1. Grade-SPF male Balb/C mice, body weight: 20±2 g, and n=48
3. Grouping and treatment: mice were randomly divided into 8 groups (A-H), 6 pcs./group;
3-1: 3 different treatments were given for 3 consecutive days respectively before modeling:
A. normal control group: normal saline was injected via the tail vein for once/day;
B. LPS model group: normal saline was injected via the tail vein for once/day;
C. model sp2 administration group: sp2 (16 mg/kgBW) was injected via the tail vein for once/day;
D. model high-dose brap administration group: brap (16 mg/kgBW) was injected via the tail vein for once/day;
E. model medium-dose brap administration group: brap (8 mg/kgBW) was injected via the tail vein for once/day;
F. model low-dose brap administration group: brap (4 mg/kgBW) was injected via the tail vein for once/day;
G. model brap intranasal administration group: brap (3 mM) was administered nasal administration on both sides, 15 μl/each side; once a day;
H. model dexamethasone administration group (a positive control group): dexamethasone, DEX, 5 mg/kg was injected intraperitoneally for once a day.
Animals from groups A-H were continuously administered the above treatments for 30 min respectively, then group A was intraperitoneally injected isopyknic normal saline, and other groups were intraperitoneally injected LPS 5 mg/kgBW.
1. Tissue section and extending
2. Tissues were dewaxed and hydrated.
3. Tissues were dyed with a hematoxylin stain for 5-20 min (adjusted according to different tissues and experimental requirements), and washed by tap water.
4. Then, tissues were differentiated by a differentiation solution for 30 s.
5. Tissues were soaked by tap water for 15 min or warm water (about 50° C.) for 5 min.
6. Tissues were put in an Eosin stain for 2 min (adjusted according to different tissues and experimental requirements), and washed by tap water.
7. Then, the tissues were soaked by tap water for 5 min.
8. Dehydration by gradient alcohol: Tissues were dehydrated by 95%, 100% I, and 100% II for 1 min each;
9. Transparency by xylene: tissues were subjected to xylene I and II for 10 min.
10. Neutral balsam mounting.
11. Then, it was put and dried in an oven at 60° C., and observed under microscope.

With “sp2: control synthetic peptide with an amino acid sequence as shown in SEQ ID No: 2 (RVLNGPEEEAAAPAE) [reference compound]” the “Scoring change before and after treatment” value [1] was “increases” and the “Lung tissue pathology (HE)” value [2] was “inflammatory cell infiltration is obvious”.
